Source: patent US10479784B2, “Substituted pyrazin-2-amines as inhibitors of ATR kinase” (Vertex Pharmaceuticals Incorporated, priority 2008, dated 2019)
pKi: −log10 of the molar value.

The compounds below were run against full-length ATR (Homo sapiens (Human), UniProt Q13535) (assay: ATR Inhibition Assay (radioactive-phosphate incorporation)). Conditions: read-out: ATR Ki.
Type: biochemical
Method in brief: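 Ki(app) was derived by non-linear regression of background-corrected initial rates of 33P incorporation into an 800 μM target peptide, read by phosphocellulose filter scintillation counting. Reaction conditions: 5 nM full-length ATR, 10 μM [γ-33P]ATP, pH 7.5 Tris buffer with MgCl2 and DTT, 25 °C, 10-min preincubation, 24 h run.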

full-length ATR, sequence (Q13535 whole entry): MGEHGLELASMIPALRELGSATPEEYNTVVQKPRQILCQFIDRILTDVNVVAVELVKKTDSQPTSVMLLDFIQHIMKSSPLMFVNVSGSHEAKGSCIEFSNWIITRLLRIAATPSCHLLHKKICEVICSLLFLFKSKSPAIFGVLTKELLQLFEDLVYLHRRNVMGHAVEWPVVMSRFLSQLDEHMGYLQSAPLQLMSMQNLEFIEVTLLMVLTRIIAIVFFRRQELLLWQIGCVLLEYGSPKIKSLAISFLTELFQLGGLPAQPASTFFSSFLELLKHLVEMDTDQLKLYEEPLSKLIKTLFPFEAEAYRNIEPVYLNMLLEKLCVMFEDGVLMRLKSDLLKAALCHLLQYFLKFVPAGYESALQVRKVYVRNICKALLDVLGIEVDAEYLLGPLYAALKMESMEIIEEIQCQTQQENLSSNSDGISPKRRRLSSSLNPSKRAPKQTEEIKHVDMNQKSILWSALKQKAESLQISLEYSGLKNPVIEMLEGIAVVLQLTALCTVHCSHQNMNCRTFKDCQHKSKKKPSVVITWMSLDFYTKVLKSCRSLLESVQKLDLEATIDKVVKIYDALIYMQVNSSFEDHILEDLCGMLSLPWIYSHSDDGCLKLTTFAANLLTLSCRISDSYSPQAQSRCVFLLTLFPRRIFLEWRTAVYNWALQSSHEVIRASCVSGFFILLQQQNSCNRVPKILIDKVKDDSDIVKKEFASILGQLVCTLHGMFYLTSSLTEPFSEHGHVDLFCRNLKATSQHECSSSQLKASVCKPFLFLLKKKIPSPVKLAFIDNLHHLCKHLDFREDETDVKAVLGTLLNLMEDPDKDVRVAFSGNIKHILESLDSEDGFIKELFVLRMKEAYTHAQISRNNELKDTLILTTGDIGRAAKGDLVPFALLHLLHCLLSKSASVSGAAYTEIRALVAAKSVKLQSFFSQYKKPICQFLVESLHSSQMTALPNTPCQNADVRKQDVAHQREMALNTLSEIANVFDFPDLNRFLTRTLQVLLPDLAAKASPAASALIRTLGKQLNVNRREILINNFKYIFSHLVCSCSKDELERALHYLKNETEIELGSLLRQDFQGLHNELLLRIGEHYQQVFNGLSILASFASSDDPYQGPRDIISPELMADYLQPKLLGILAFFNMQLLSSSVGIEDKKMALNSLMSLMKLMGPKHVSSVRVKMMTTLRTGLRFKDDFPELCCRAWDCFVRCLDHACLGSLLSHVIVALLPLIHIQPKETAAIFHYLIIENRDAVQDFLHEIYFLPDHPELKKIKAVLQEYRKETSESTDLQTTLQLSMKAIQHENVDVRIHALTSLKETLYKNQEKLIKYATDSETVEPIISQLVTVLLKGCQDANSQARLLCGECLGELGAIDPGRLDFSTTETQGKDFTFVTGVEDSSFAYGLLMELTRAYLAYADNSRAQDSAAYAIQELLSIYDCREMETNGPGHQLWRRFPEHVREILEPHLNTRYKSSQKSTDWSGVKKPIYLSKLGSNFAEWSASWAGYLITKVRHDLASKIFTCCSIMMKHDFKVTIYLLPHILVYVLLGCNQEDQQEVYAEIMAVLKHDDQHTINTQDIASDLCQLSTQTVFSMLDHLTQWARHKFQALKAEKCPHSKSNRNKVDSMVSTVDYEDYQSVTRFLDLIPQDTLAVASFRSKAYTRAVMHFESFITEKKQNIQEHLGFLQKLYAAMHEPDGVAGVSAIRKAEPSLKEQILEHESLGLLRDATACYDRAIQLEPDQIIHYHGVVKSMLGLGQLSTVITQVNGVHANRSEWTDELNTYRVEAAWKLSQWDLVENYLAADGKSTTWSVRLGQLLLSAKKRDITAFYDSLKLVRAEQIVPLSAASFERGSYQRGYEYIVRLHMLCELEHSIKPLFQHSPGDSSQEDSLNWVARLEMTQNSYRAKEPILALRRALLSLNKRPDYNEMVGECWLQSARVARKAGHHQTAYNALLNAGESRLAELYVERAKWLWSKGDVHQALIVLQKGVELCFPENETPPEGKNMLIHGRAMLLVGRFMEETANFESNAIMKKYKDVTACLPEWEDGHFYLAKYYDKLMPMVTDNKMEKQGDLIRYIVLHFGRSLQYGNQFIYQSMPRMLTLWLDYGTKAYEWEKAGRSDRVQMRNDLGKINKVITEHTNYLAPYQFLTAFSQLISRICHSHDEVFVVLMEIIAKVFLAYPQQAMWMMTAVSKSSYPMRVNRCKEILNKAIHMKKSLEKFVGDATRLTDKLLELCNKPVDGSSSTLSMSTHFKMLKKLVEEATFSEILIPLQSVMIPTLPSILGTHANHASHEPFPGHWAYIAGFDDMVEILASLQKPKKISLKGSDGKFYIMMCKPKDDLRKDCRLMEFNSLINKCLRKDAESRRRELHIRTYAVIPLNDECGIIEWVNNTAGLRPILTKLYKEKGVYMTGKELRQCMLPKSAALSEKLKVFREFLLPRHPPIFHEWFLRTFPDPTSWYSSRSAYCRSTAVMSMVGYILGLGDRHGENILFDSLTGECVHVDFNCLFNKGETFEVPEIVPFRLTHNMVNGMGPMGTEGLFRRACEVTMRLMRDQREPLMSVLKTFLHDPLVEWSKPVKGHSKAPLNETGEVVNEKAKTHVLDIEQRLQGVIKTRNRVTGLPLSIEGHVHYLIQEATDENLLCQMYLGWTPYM

`CN(C)C(=O)c1ccc(-c2cnc(N)c(-c3nnc(-c4ccccc4I)o3)n2)cc1` [IA-205, 4-[5-amino-6-[5-(2-iodophenyl)-1,3,4-oxadiazol-2-yl]pyrazin-2-yl]-N,N-dimethyl-benzamide] and `CCS(=O)(=O)c1ccc(-c2cnc(N)c(-c3nnc(-c4ccccc4)o3)n2)cc1` [IA-149, 5-(4-ethylsulfonylphenyl)-3-(5-phenyl-1,3,4-oxadiazol-2-yl)pyrazin-2-amine] cannot be ordered by pKi: at least 8.00 for the first, at least 8.00 for the second.

First: CNCc1ccc(-c2nnc(-c3nc(-c4ccc(S(=O)(=O)C5COC5)cc4)cnc3N)o2)cc1 [IA-308, 3-[5-[4-(methylaminomethyl)phenyl]-1,3,4-oxadiazol-2-yl]-5-[4-(oxetan-3-ylsulfonyl)phenyl]pyrazin-2-amine]
Second: CC(C)S(=O)(=O)c1ccc(-c2cnc(N)c(-c3nnc(C(=O)NC4CCCCC4N)o3)n2)cc1 (centres unmarked) [IA-81, N-(2-aminocyclohexyl)-5-[3-amino-6-(4-isopropylsulfonylphenyl)pyrazin-2-yl]-1,3,4-oxadiazole-2-carboxamide]
The pKi of the first is higher: at least 8.00 for the first, 5.30 to 7.00 for the second.

`CNCc1cccc(-c2nnc(-c3nc(-c4ccc(S(=O)(=O)C(C)C)cc4)cnc3N)o2)c1` [IA-146, 5-(4-isopropylsulfonylphenyl)-3-[5-[3-(methylaminomethyl)phenyl]-1,3,4-oxadiazol-2-yl]pyrazin-2-amine] and `CC(C)S(=O)(=O)c1ccc(-c2cnc(N)c(-c3nnc(-c4ccc(CN(C)C)cc4)o3)n2)cc1` [IA-243, 3-[5-[4-(dimethylaminomethyl)phenyl]-1,3,4-oxadiazol-2-yl]-5-(4-isopropylsulfonylphenyl)pyrazin-2-amine] cannot be ordered by pKi: at least 8.00 for the first, at least 8.00 for the second.

First: CC1CN(C(=O)c2ccc(-c3cnc(N)c(-c4nnc(-c5ccccc5)o4)n3)cc2)CCN1 (centres unmarked) [IA-17]
Second: Nc1ncc(-c2ccccc2CO)nc1-c1nc2ccccc2[nH]1 [Compound I-127, (2-(5-amino-6-(1H-benzo[d]imidazol-2-yl)pyrazin-2-yl)phenyl)methanol]
The pKi of the first is higher: 7.00 to 8.00 for the first, 5.30 to 7.00 for the second. The first binds more tightly here.

`Nc1ncc(-c2ccc(C(=O)N3CCCOCC3)cc2)nc1-c1nnc(-c2ccccc2)o1` [IA-15] and `CC(C)S(=O)(=O)c1ccc(-c2cnc(N)c(-c3cc(-c4ccc(CN)cc4)no3)n2)cc1` [IIA-5, 3-[3-[4-(aminomethyl)phenyl]isoxazol-5-yl]-5-(4-isopropylsulfonylphenyl)pyrazin-2-amine] cannot be ordered by pKi: at least 8.00 for the first, at least 8.00 for the second.

`Cc1ccccc1-c1nnc(-c2nc(-c3ccc(C(=O)N(C)C)cc3)cnc2N)o1` [IA-71, 4-[5-amino-6-[5-(o-tolyl)-1,3,4-oxadiazol-2-yl]pyrazin-2-yl]-N,N-dimethyl-benzamide] and `CC(C)S(=O)(=O)c1ccc(-c2cnc(N)c(-c3nnc(-c4ccc(C(N)C(F)(F)F)cc4)o3)n2)cc1` (stereo in doubt) [IA-325, 3-[5-[4-[(1S)-1-amino-2,2,2-trifluoro-ethyl]phenyl]-1,3,4-oxadiazol-2-yl]-5-(4-isopropylsulfonylphenyl)pyrazin-2-amine] cannot be ordered by pKi: at least 8.00 for the first, 7.00 to 8.00 for the second.

First: CC(N)C(=O)Nc1nnc(-c2nc(-c3ccc(S(=O)(=O)C(C)C)cc3)cnc2N)o1 (centres unmarked) [IA-272, 2-amino-N-[5-[3-amino-6-(4-isopropylsulfonylphenyl)pyrazin-2-yl]-1,3,4-oxadiazol-2-yl]propanamide]
Second: CS(=O)(=O)c1ccc(-c2cnc(N)c(C(=O)Nc3ccccn3)n2)cc1 [VII-6]
The pKi of the first is lower: 5.30 to 7.00 for the first, 7.00 to 8.00 for the second.

`Nc1ncc(-c2cccnc2)nc1-c1nc2ccccc2[nH]1` [Compound I-121, 3-(1H-benzo[d]imidazol-2-yl)-5-(pyridin-3-yl)pyrazin-2-amine] and `COc1ccccc1NC(=O)c1nc(-c2cccs2)cnc1N` [Compound I-35, 3-amino-N-(2-methoxyphenyl)-6-(thiophen-2-yl)pyrazine-2-carboxamide] fall in the same range of pKi: 7.00 to 8.00 for the first, 7.00 to 8.00 for the second.

`Cc1cccc(-c2nnc(-c3nc(-c4cccnc4)cnc3N)[nH]2)c1` [Compound I-141, 5-(pyridin-3-yl)-3-(5-m-tolyl-4H-1,2,4-triazol-3-yl)pyrazin-2-amine] and `CNCc1ccc(-c2nnc(-c3nc(-c4ccc(S(=O)(=O)C(C)C)cc4)cnc3N)o2)c(Cl)c1` [IA-306, 3-[5-[2-chloro-4-(methylaminomethyl)phenyl]-1,3,4-oxadiazol-2-yl]-5-(4-isopropylsulfonylphenyl)pyrazin-2-amine] cannot be ordered by pKi: 7.00 to 8.00 for the first, at least 8.00 for the second.

`CC(C)S(=O)(=O)c1ccc(-c2cnc(N)c(-c3nnc(-c4cccc(C5CCCN5)c4)o3)n2)cc1` (centres unmarked) [IA-84, 5-(4-isopropylsulfonylphenyl)-3-[5-(3-pyrrolidin-2-ylphenyl)-1,3,4-oxadiazol-2-yl]pyrazin-2-amine] and `Nc1ncc(-c2cccnc2)nc1C(=O)Nc1cccc(F)c1` [Compound I-103, 3-amino-N-(3-fluorophenyl)-6-(pyridin-3-yl)pyrazine-2-carboxamide] cannot be ordered by pKi: at least 8.00 for the first, 7.00 to 8.00 for the second.

`CN1CCC(NC(=O)c2cccc(-c3cnc(N)c(C(=O)Nc4ccccc4)n3)c2)CC1` [Compound I-48, 3-amino-6-(3-(1-methylpiperidin-4-ylcarbamoyl)phenyl)-N-phenylpyrazine-2-carboxamide] and `Nc1ncc(-c2cccc(C(F)(F)F)c2)nc1-c1nnc(-c2ccccc2)o1` [IA-96, 3-(5-phenyl-1,3,4-oxadiazol-2-yl)-5-[3-(trifluoromethyl)phenyl]pyrazin-2-amine] fall in the same range of pKi: 5.30 to 7.00 for the first, 5.30 to 7.00 for the second.

Compared with `CN(C)C(=O)c1ccc(-c2cnc(N)c(-c3nnc(NC4CCNCC4)o3)n2)cc1` [IA-54], `CNCc1ccc(-c2nnc(-c3nc(-c4ccc(S(=O)(=O)C(C)CCO)cc4)cnc3N)o2)c(F)c1` (centres unmarked) [IA-342, 3-[4-[5-amino-6-[5-[2-fluoro-4-(methylaminomethyl)phenyl]-1,3,4-oxadiazol-2-yl]pyrazin-2-yl]phenyl]sulfonylbutan-1-ol] is higher in pKi: 5.30 to 7.00 for the first, at least 8.00 for the second. The second binds more tightly here.

First: Nc1ncc(-c2cccc(N3CCOCC3)c2)nc1C(=O)Nc1ccccc1 [Compound I-12, 3-amino-6-(3-morpholinophenyl)-N-phenylpyrazine-2-carboxamide]
Second: CC(C)S(=O)(=O)c1ccc(-c2cnc(N)c(-c3nnc(-c4cccc(CN(C)C)c4)o3)n2)cc1 [IA-204, 3-[5-[3-(dimethylaminomethyl)phenyl]-1,3,4-oxadiazol-2-yl]-5-(4-isopropylsulfonylphenyl)pyrazin-2-amine]
The pKi of the first is lower: 5.30 to 7.00 for the first, 7.00 to 8.00 for the second.

`Nc1ncc(-c2ccc(C(=O)NCCN3CCCC3)cc2)nc1C(=O)Nc1ccccc1` [Compound I-46, 3-amino-N-phenyl-6-(4-(2-(pyrrolidin-1-yl)ethylcarbamoyl)phenyl) pyrazine-2-carboxamide] and “(R)-3-amino-N-phenyl-6-(4-(2-(pyrrolidin-1-ylmethyl)pyrrolidine-1-carbonyl)phenyl)pyrazine-2-carboxamide [Compound I-42]” fall in the same range of pKi: 5.30 to 7.00 for the first, 5.30 to 7.00 for the second.

`CC(C)[S+]([O-])c1ccc(-c2cnc(N)c(-c3nnc(-c4ccccc4)o3)n2)cc1` (centres unmarked) [IA-90, 5-(4-isopropylsulfinylphenyl)-3-(5-phenyl-1,3,4-oxadiazol-2-yl)pyrazin-2-amine] and `CN(C)[C@@H]1CCN(S(=O)(=O)c2ccc(-c3cnc(N)c(-c4nnc(-c5ccccc5)o4)n3)cc2)C1` [IA-25] cannot be ordered by pKi: at least 8.00 for the first, 7.00 to 8.00 for the second.

`CN(C)C(=O)c1ccc(-c2cnc(N)c(-c3nnc(N4CCOCC4)o3)n2)cc1` [IA-45] and `COc1ccccc1-c1cnc(N)c(-c2nnc(-c3ccccc3)o2)n1` [IA-65] fall in the same range of pKi: 5.30 to 7.00 for the first, 5.30 to 7.00 for the second.

`CN(C)C1CCN(C(=O)c2ccc(-c3cnc(N)c(C(=O)Nc4ccccc4)n3)cc2)CC1` [Compound I-80, 3-amino-6-(4-(4-(dimethylamino)piperidine-1-carbonyl)phenyl)-N-phenylpyrazine-2-carboxamide] and `Nc1ncc(-c2ccc(C(=O)N3CCCNCC3)cc2)nc1-c1nnc(-c2ccccc2)s1` [IA-68, (4-(5-amino-6-(5-phenyl-1,3,4-thiadiazol-2-yl)pyrazin-2-yl)phenyl)(1,4-diazepan-1-yl)methanone] cannot be ordered by pKi: 7.00 to 8.00 for the first, at least 8.00 for the second.

`CC(C)S(=O)(=O)c1ccc(-c2cnc(N)c(-c3nnc(C(=O)N4CCC(N)C4)o3)n2)cc1` (centres unmarked) [IA-133, [5-[3-amino-6-(4-isopropylsulfonylphenyl)pyrazin-2-yl]-1,3,4-oxadiazol-2-yl]-(3-aminopyrrolidin-1-yl)methanone] and `Nc1ncc(-c2cccnc2)nc1C(=O)Nc1ccncn1` [Compound I-89, 3-amino-6-(pyridin-3-yl)-N-(pyrimidin-4-yl)pyrazine-2-carboxamide] fall in the same range of pKi: 5.30 to 7.00 for the first, 5.30 to 7.00 for the second.

`CN(C)C(=O)c1ccc(-c2cnc(N)c(-c3nc4ccccc4[nH]3)n2)cc1` [Compound I-124, 4-(5-amino-6-(1H-benzo[d]imidazol-2-yl)pyrazin-2-yl)-N,N-dimethylbenzamide] and `Nc1ncc(-c2ccc(C(=O)N3CCCNCC3)cc2)nc1C(=O)Nc1n[nH]c2ccccc12` [Compound V-8] cannot be ordered by pKi: 7.00 to 8.00 for the first, at least 8.00 for the second.

`Cc1ccc2nc(-c3nc(-c4ccc(C(=O)N5CCCNCC5)cc4)cnc3N)[nH]c2c1` [III-1, (4-(5-amino-6-(6-methyl-1H-benzo[d]imidazol-2-yl)pyrazin-2-yl)phenyl) (1,4-diazepan-1-yl)methanone] and `CC(CCO)S(=O)(=O)c1ccc(-c2cnc(N)c(-c3nnc(-c4ccccc4F)o3)n2)cc1` (centres unmarked) [IA-339, 3-[4-[5-amino-6-[5-(2-fluorophenyl)-1,3,4-oxadiazol-2-yl]pyrazin-2-yl]phenyl]sulfonylbutan-1-ol] cannot be ordered by pKi: 7.00 to 8.00 for the first, at least 8.00 for the second.

Compared with `CCc1ncccc1NC(=O)c1nc(-c2ccc(S(C)(=O)=O)cc2)cnc1N` [VII-4], `Cc1ccccc1NC(=O)c1nc(-c2cccnc2)cnc1N` [Compound I-91, 3-amino-6-(pyridin-3-yl)-N-o-tolylpyrazine-2-carboxamide] is lower in pKi: 7.00 to 8.00 for the first, 5.30 to 7.00 for the second.

`CNCc1ccc(-c2nnc(-c3nc(-c4ccc(S(=O)(=O)N(C)C)cc4)cnc3N)o2)cc1` [IA-296, 4-[5-amino-6-[5-[4-(methylaminomethyl)phenyl]-1,3,4-oxadiazol-2-yl]pyrazin-2-yl]-N,N-dimethyl-benzenesulfonamide] and `COc1ccccc1-c1nnc(-c2nc(-c3ccc(C(=O)N(C)C)cc3)cnc2N)o1` [IA-242, 4-[5-amino-6-[5-(2-methoxyphenyl)-1,3,4-oxadiazol-2-yl]pyrazin-2-yl]-N,N-dimethyl-benzamide] cannot be ordered by pKi: at least 8.00 for the first, at least 8.00 for the second.
